Values after ≈ are worked out from the molar mass of the structure shown. One block for each compound: values may come before it.
Tests used:
Experiment in all cases: ≥ marks a high value that may be exact or a test limit, other limits are often not marked, values filed in µg/mL are converted to µM
[1] = tested on: Staphylococcus aureus ATCC 25923
[2] = tested on: Pseudomonas aeruginosa CGMCC 1.50
Nocardia asteroides = tested on: Nocardia asteroides
[3] = tested on: Enterococcus faecalis 981
Candida glabrata 090902 = tested on: Candida glabrata 090902
Candida albicans = tested on: Candida albicans
Streptococcus mutans = tested on: Streptococcus mutans
Pseudomonas putida = tested on: Pseudomonas putida
Cryptococcus neoformans = tested on: Cryptococcus neoformans
Bacillus subtilis = tested on: Bacillus subtilis
Escherichia coli = tested on: Escherichia coli
Staphylococcus aureus = tested on: Staphylococcus aureus
Serratia sp. = tested on: Serratia sp.
Salmonella typhimurium = tested on: Salmonella typhimurium
Saccharomyces cerevisiae = tested on: Saccharomyces cerevisiae
Micrococcus luteus = tested on: Micrococcus luteus
[4] = tested on: Escherichia coli ATCC 25922
[5] = tested on: Pseudomonas aeruginosa ATCC 15692
[6] = tested on: Candida parapsilosis ATCC 22019
[7] = tested on: Enterobacter cloacae ATCC 13047
Staphylococcus aureus 10 = tested on: Staphylococcus aureus 10
Klebsiella pneumoniae = tested on: Klebsiella pneumoniae
Staphylococcus aureus 37 = tested on: Staphylococcus aureus 37
Shigella dysenteriae = tested on: Shigella dysenteriae
[8] = tested on: Candida albicans ATCC 90028
[9] = tested on: Pseudomonas aeruginosa ATCC 27853
[10] = tested on: Klebsiella pneumoniae ATCC 700603
[11] = tested on: Candida albicans ATCC 2002
[12] = tested on: Enterococcus faecalis ATCC 29212
[13] = tested on: Pseudomonas aeruginosa CMCCB 1010
Escherichia coli SC9251 = tested on: Escherichia coli SC9251
Escherichia coli IH3080 = tested on: Escherichia coli IH3080
Escherichia coli SC9253 = tested on: Escherichia coli SC9253
Escherichia coli SM101 = tested on: Escherichia coli SM101
Escherichia coli SC9252 = tested on: Escherichia coli SC9252
Micrococcus luteus ML36 = tested on: Micrococcus luteus ML36

SMILES: CC[C@H](C)[C@H](NC(=O)[C@H](CC(C)C)NC(=O)CNC(=O)[C@@H](NC(=O)[C@@H](NC(=O)[C@@H](N)Cc1ccccc1)[C@@H](C)CC)[C@@H](C)O)C(=O)NCC(=O)NCC(=O)N[C@@H](CC(C)C)C(=O)N[C@@H](CCSC)C(=O)N[C@@H](CCCCN)C(=O)N[C@@H](C)C(=O)N[C@@H](CC(C)C)C(N)=O [FITGLIGGLMKAL]
MIC [1]: 100 µM (≈ 133 µg/mL)
MIC [2]: ≥ 400 µM
MIC (Nocardia asteroides): ≥ 100 µM
MIC [3]: ≥ 200 µM
MIC (Candida glabrata 090902): ≥ 400 µM

SMILES: CC(C)C[C@H](NC(=O)[C@H](CCCN=C(N)N)NC(=O)[C@H](C)NC(=O)[C@H](CCCN=C(N)N)NC(=O)[C@H](CC(C)C)NC(=O)[C@H](CO)NC(=O)[C@H](CCC(=O)O)NC(=O)CNC(=O)[C@H](CCCCN)NC(=O)[C@H](CC(C)C)NC(=O)[C@H](CCCN=C(N)N)NC(=O)[C@H](CO)NC(=O)[C@@H](NC(=O)[C@H](CCCCN)NC(=O)[C@@H](NC(=O)[C@@H](NC(=O)CN)C(C)C)C(C)C)C(C)C)C(=O)O [GVVKVSRLKGESLRARL]
MIC (Candida albicans): 5.35 µM (≈ 10 µg/mL)
MIC (Streptococcus mutans): 3.21 µM (≈ 6 µg/mL)
MIC (Pseudomonas putida): 5.35 µM (≈ 10 µg/mL)
MIC (Cryptococcus neoformans): 3.21 µM (≈ 6 µg/mL)
MIC (Bacillus subtilis): 3.21 µM (≈ 6 µg/mL)
MIC (Escherichia coli): 5.35 µM (≈ 10 µg/mL)
MIC (Staphylococcus aureus): 10.7 µM (≈ 20 µg/mL)
MIC (Serratia sp.): 10.7 µM (≈ 20 µg/mL)
MIC (Salmonella typhimurium): 5.35 µM (≈ 10 µg/mL)
MIC (Saccharomyces cerevisiae): 3.21 µM (≈ 6 µg/mL)

SMILES: CC[C@H](C)[C@H](NC(=O)[C@H](C)NC(=O)[C@H](CC(=O)O)NC(=O)[C@H](CC(C)C)NC(=O)CNC(=O)CNC(=O)[C@H](CCCCN)NC(=O)[C@H](C)NC(=O)[C@H](Cc1ccccc1)NC(=O)[C@H](CCCCN)NC(=O)[C@H](CCCCN)NC(=O)[C@H](CC(C)C)NC(=O)CNC(=O)CNC(=O)[C@H](CC(C)C)NC(=O)[C@@H](NC(=O)[C@@H](NC(=O)[C@H](CO)NC(=O)[C@H](Cc1c[nH]c2ccccc12)NC(=O)[C@@H](NC(=O)CN)C(C)C)[C@@H](C)O)[C@@H](C)CC)C(=O)N[C@H](C(=O)N[C@@H](CC(N)=O)C(=O)N1CCC[C@H]1C(=O)N[C@@H](CCCCN)C(=O)O)C(C)C [GVWSTILGGLKKFAKGGLDAIVNPK]
MIC [1]: 11.3 µM (≈ 29.1 µg/mL)
MIC (Micrococcus luteus): 0.5 µM (≈ 1.29 µg/mL)
MIC [4]: 2.83 µM (≈ 7.27 µg/mL)
MIC [5]: 16 µM (≈ 41.1 µg/mL)
MIC (Saccharomyces cerevisiae): 8 µM (≈ 20.6 µg/mL)

Other lines, results leading:

MIC [1]: 6.62 µM (≈ 10 µg/mL)
MIC [6]: 1.66 µM (≈ 2.5 µg/mL)
MIC [7]: 3.31 µM (≈ 5 µg/mL)
MIC (Staphylococcus aureus 10): 1.66 µM (≈ 2.5 µg/mL)
MIC (Klebsiella pneumoniae): 13.2 µM (≈ 20 µg/mL)
MIC (Staphylococcus aureus 37): 3.31 µM (≈ 5 µg/mL)
MIC (Shigella dysenteriae): 6.62 µM (≈ 10 µg/mL)
MIC [8]: 6.62 µM (≈ 10 µg/mL)
MIC [9]: 53 µM (≈ 80 µg/mL)
MIC [10]: 26.5 µM (≈ 40 µg/mL)
MIC [11]: 3.31 µM (≈ 5 µg/mL)
MIC [12]: 3.31 µM (≈ 5 µg/mL)
MIC [13]: 6.62 µM (≈ 10 µg/mL)
SMILES: CC[C@H](C)[C@H](N)C(=O)N[C@@H](CC(N)=O)C(=O)N[C@@H](CC(C)C)C(=O)N[C@@H](CCCCN)C(=O)N[C@@H](C)C(=O)N[C@H](C(=O)N[C@H](C(=O)N[C@@H](C)C(=O)N[C@@H](CC(C)C)C(=O)N[C@@H](C)C(=O)N[C@@H](CCCCN)C(=O)N[C@@H](CCCCN)C(=O)N[C@@H](CC(C)C)C(=O)N[C@@H](CC(C)C)C(=O)O)[C@@H](C)O)[C@@H](C)CC [INLKAITALAKKLL]

MIC (Escherichia coli SC9251): 23.3 µM (≈ 30 µg/mL)
MIC (Escherichia coli IH3080): ≥ 77.8 µM
MIC (Escherichia coli SC9253): 23.3 µM (≈ 30 µg/mL)
MIC (Escherichia coli SM101): 23.3 µM (≈ 30 µg/mL)
MIC (Escherichia coli SC9252): 23.3 µM (≈ 30 µg/mL)
MIC (Micrococcus luteus ML36): 7.78 µM (≈ 10 µg/mL)
SMILES: NCCCC[C@H](NC(=O)[C@H](Cc1ccccc1)NC(=O)[C@H](Cc1ccccc1)NC(=O)[C@H](CCCCN)NC(=O)[C@H](Cc1ccccc1)NC(=O)[C@H](Cc1ccccc1)NC(=O)[C@@H](N)CCCCN)C(=O)N[C@@H](Cc1ccccc1)C(=O)N[C@@H](Cc1ccccc1)C(=O)O [KFFKFFKFF]

From DBAASP
